According to PubChem BioAssay (NCI):
Several values for one entry are separate records, joined by “and”; a condition that tells them apart may be missing. Identical values can stand only once.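 Where inhibition never reached the appropriate level, the endpoint shown equals the highest concentration tested. Otherwise, values were interpolated linearly from a five-concentration, 48-hour dose response in 96-well plates. At the GI50, growth is halved. Definition used: TGI = concentration required for complete inhibition of growth.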

How the values were obtained:
Test in all cases: growth of human tumour cells (NCI), 48 h
DMS 273 small cell lung = system: DMS 273 small cell lung
HOP-18 NSCLC = system: HOP-18 NSCLC
LXFL 529 NSCLC = system: LXFL 529 NSCLC
DLD-1 colon = system: DLD-1 colon
SNB-78 CNS = system: SNB-78 CNS
MDA-N = system: MDA-N
M19-MEL melanoma = system: M19-MEL melanoma
XF 498 CNS = system: XF 498 CNS
RXF-631 renal = system: RXF-631 renal

Compound | TGI (DMS 273 small cell lung) | TGI (HOP-18 NSCLC) | TGI (LXFL 529 NSCLC) | TGI (DLD-1 colon) [µM] | TGI (SNB-78 CNS) | TGI (M19-MEL melanoma) | TGI (XF 498 CNS) [µM] | TGI (RXF-631 renal) [µM] | also measured
N.N.NCCCCN.O=C([O-])CC(=O)[O-].O=C([O-])CC(=O)[O-].[Pt+4].[Pt+4] | > 100 µM | > 100 µM | > 100 µM | > 100 | > 100 µM |  |  |  | GI50 (DMS 273 small cell lung): 89.2 µM; GI50 (HOP-18 NSCLC): > 100 µM; GI50 (LXFL 529 NSCLC): > 100 µM; GI50 (DLD-1 colon): > 100 µM; GI50 (SNB-78 CNS): > 100 µM
O=C1NC(=O)C2=C1CCC2O (centres undefined) |  |  |  |  |  |  |  |  | TGI (MDA-N): > 100 µM
O=C1C2c3[nH]c4ccccc4c3C3CCSCC3C2C(=O)N1c1ccccc1 (centres undefined) | > 100 µM |  | > 100 µM | > 100 | > 100 µM | > 100 µM | > 100 |  | 
O=C(Nc1ccccc1)O/N=C1/CCCC/C1=C\c1ccccc1 | 31.2 µM | 29.9 µM | 21.4 µM | 29.4 | 33 µM | 34 µM |  | 47.3 | 
Nc1nc(SCC(=O)O)[nH]c(=O)c1N |  |  |  |  |  |  |  |  | TGI (MDA-N): > 100 µM
C=CC[P@@]1(=O)O[C@H](c2ccccc2)C(C)N1C(C)C (some centres undefined) | > 100 µM | > 100 µM | > 100 µM | > 100 | > 100 µM | > 100 µM | > 100 | > 100 | 
CC1=CCP(C(F)(F)F)P(C(F)(F)F)C1 (centres undefined) |  | > 100 µM | > 100 µM | > 100 | > 100 µM | > 100 µM |  | > 100 | 
CC1(c2ccccc2)CC12C(=O)NC(=O)NC2=O (centres undefined) | > 100 µM |  | > 100 µM | > 100 | > 100 µM | > 100 µM | > 100 |  | 
Cc1c2cc[n+](C)cc2c(C)c2c1[nH]c1ccc(OC(C)C)cc12 | 10.9 µM and 12.5 µM | 27.1 µM and 35.4 µM | 5.04 µM and 11.3 µM | > 100 | 6.56 µM and > 25.2 µM | 6.14 µM and 7.31 µM |  |  | GI50 (DLD-1 colon): 1.91 µM and 6.02 µM; GI50 (SNB-78 CNS): 0.427 µM and 3.93 µM
COc1c2c(c(OC)c3c(=O)cc(C/C(=N/NC(=O)C[n+]4ccccc4)C(=O)Nc4cc(C)ccc4C)oc13)OCO2 | > 100 µM |  | > 100 µM | > 100 | > 100 µM | > 100 µM |  |  | 
CC(C)(C)c1ccc(Oc2ccc(C#N)c(C#N)c2)c(C(C)(C)C)c1 | 28.5 µM | > 100 µM | > 100 µM | > 100 | > 100 µM |  | 35.4 | > 100 | 
Brc1nc2c3ccccc3ncn2c1Br | > 100 µM | 47.8 µM | > 100 µM | > 100 | > 100 µM | > 100 µM | 46.9 | > 100 | 
Cc1cc(Cl)ccc1NC(=O)/C(Cc1nc2ccc(C(=O)c3ccccc3)cc2[nH]c1=O)=N/NC(=O)c1ccncc1 |  |  |  |  |  |  |  |  | TGI (MDA-N): > 100 µM
CCOC(=O)c1[nH]c2cccc3c2c1CC(Br)C3=O (centres undefined) |  |  |  |  |  |  |  |  | TGI (MDA-N): 24.9 µM
COCC1N=C(c2ccc(OC)c(OCc3ccccc3)c2OC)O[C@H]1c1ccccc1 (some centres undefined) | 38.6 µM |  | 65 µM | > 100 | 96.2 µM | 53.8 µM |  |  | 
CC(=O)CC(=O)CCCC(=O)Nc1ccc(Cl)cc1Cl | > 100 µM | > 100 µM | > 100 µM | > 100 |  |  | > 100 | > 100 | 
CN(C)CCN1N=Nc2cccc3cccc1c23 | 87.7 µM | > 100 µM | > 100 µM | > 100 |  |  | > 100 | > 100 | 
Nc1ccc(CCN2CCN(c3cccc(C(F)(F)F)c3)CC2)cc1 |  | > 100 µM | > 100 µM | > 100 |  | > 100 µM | > 100 | > 100 | 
CC1=C2C(=CC(C)(CO)C2O)C(=O)C(C)(O)C12CC2 (centres undefined) | 0.00892 µM | 0.0331 µM | 0.0292 µM | 0.0738 | 0.0479 µM | 0.0116 µM |  | 0.0359 | 
O=[N+]([O-])c1ccc(OCCNc2cccc3ccccc23)cc1 | > 100 µM | > 100 µM | > 100 µM | > 100 |  | > 100 µM | > 100 | > 100 | 
O=[N+]([O-])c1ccc2c(c1)OCCOCCOc1ccc([N+](=O)[O-])cc1OCCOCCO2 | > 100 µM |  |  |  | > 100 µM |  |  |  | 

Compound | TGI (DMS 273 small cell lung) | TGI (HOP-18 NSCLC) | TGI (LXFL 529 NSCLC) | TGI (DLD-1 colon) [µM] | TGI (SNB-78 CNS) | TGI (M19-MEL melanoma) | TGI (XF 498 CNS) [µM] | TGI (RXF-631 renal) [µM] | also measured
CN1NC2=NCCN=C3NN(C)C(=NCCN=C1S2)S3 | > 100 µM | > 100 µM | > 100 µM | > 100 | > 100 µM | > 100 µM |  |  | 
COC1=C(OC)C(=O)c2cc(SC)c(=O)c(SC)cc2C1=O | > 100 µM | 82.2 µM | 29.5 µM | > 100 |  |  | 15.1 |  | 
COC(=O)C(=O)C(C(=O)C(=O)Nc1ccc([N+](=O)[O-])cc1[N+](=O)[O-])c1nc2ccc([N+](=O)[O-])cc2[nH]c1=O (centres undefined) | > 100 µM | > 100 µM | > 100 µM | > 100 | > 100 µM | > 100 µM | > 100 | > 100 | 
O=C(O)C1CCCN1Cc1c[nH]c2ccccc12 (centres undefined) |  |  |  |  |  |  |  |  | TGI (MDA-N): > 100 µM
CCCOP1(=O)C=C(C)C(Cl)=C(C)C1 (centres undefined) | 36.7 µM | > 100 µM | 42.9 µM | 96.3 |  | 52.7 µM | 31.4 | > 100 | 
CN(OC(=O)CC(=O)c1ccccc1)C(=O)Cc1ccccc1 |  |  | > 100 µM | > 100 | > 100 µM | > 100 µM |  | > 100 | 
O=C1C(c2ccc(Cl)cc2)=[N+]([O-])c2ccccc21 |  | 58.9 µM | 18.6 µM | 30.1 |  | > 100 µM | 34.7 | 48.4 | 
O=C1CC2(CCCc3sccc32)C(=O)N1 (centres undefined) |  |  |  |  |  |  |  |  | TGI (MDA-N): > 100 µM
O=c1oc2ccccc2cc1-c1ccc([N+](=O)[O-])cc1 |  |  |  |  |  |  |  |  | TGI (MDA-N): > 100 µM
COC1CCC2C(=O)CCCC2O1 (centres undefined) | > 100 µM | > 100 µM | > 100 µM | > 100 | > 100 µM | > 100 µM | > 100 | > 100 | 
Cc1c2ncccc2c(C)c2c1[nH]c1ccc(O)cc12 |  |  |  |  |  |  |  |  | GI50 (MDA-N): 9.69 µM; TGI (MDA-N): 17.9 µM and 47.5 µM
O=NN(CCCl)C(=O)NCc1ccc[n+]([O-])c1 |  |  | > 100 µM | > 100 | > 100 µM | > 100 µM | > 100 | > 100 | 
Cc1ccc(C2=[N+]([O-])c3ccccc3C2=O)cc1 |  | > 100 µM | 22.9 µM | 57.2 | 74.2 µM | > 55.4 µM | 17.8 | 51.7 | 
CC(C)SC1SCC2C(=O)N(C)C3(CC3C)C(=O)OCC(NC(=O)c3nc4ccccc4cc3O)C(=O)NC(C)C(=O)N(C)C1C(=O)N(C)C1(CC1C)C(=O)OCC(NC(=O)c1nc3ccccc3cc1O)C(=O)NC(C)C(=O)N2C (centres undefined) |  |  |  |  |  |  |  |  | TGI (MDA-N): < 0.0001 µM
O=C1CCCSCCCC(=O)CCCSCCC1 |  |  |  |  |  |  |  |  | TGI (MDA-N): > 100 µM
CC1/C=C/C=C/CC/C=C/C=C/C=C/C=C/C(OC2OC(C)C(O)C(N)C2O)CC2OC(CC(O)C(O)CCC(O)CC(O)CC(O)CC(=O)OC(C)C(C)C1O)CC(O)C2C(=O)O (centres undefined) |  |  |  |  |  |  |  |  | GI50 (MDA-N): 25.6 mg/L; TGI (MDA-N): 31.8 µM and 46.7 µg/mL
Cc1c2[nH]c3ccc(Br)cc3c2c(C)c2[nH]ccc(=O)c12 | 27 µM | 22.9 µM |  | > 100 | 35.7 µM | 29.6 µM | 29.7 |  | 
CCCCCCC(O)C/C=C/CCCCCC/C(C(=O)OC)=C(/O)C(=O)OCC (centres undefined) | > 100 µM | > 100 µM | > 100 µM | > 100 | > 100 µM | > 100 µM | > 100 | > 100 | 
Cc1ccc(C)c(NC(=O)CC2C(=O)Nc3ccccc3S2(=O)=O)c1 (centres undefined) | > 100 µM |  | > 100 µM | > 100 | > 100 µM | > 100 µM | 61.6 | > 100 | 
CC(C)(C)C(=O)Nc1ccccc1Br | > 100 µM |  | > 100 µM | > 100 |  | > 100 µM | > 100 |  | 
O=C1c2cccnc2-c2nc(-c3ccccn3)cc3c2c1nc1ccccc13 |  |  |  |  |  |  |  |  | GI50 (MDA-N): 0.259 µM; TGI (MDA-N): 1.25 µM
